Test results published in US12059420B2 (BRISTOL-MYERS SQUIBB COMPANY, priority 2018, dated 2024).
Where a name gives a salt, the structure may show the parent alone.

Molecular target: T1, human IDO1 (Homo sapiens, UniProt P14902)
T1 construct: expressed in transfected cells
Test: IDO inhibition assay in HEK293 cells stably expressing human IDO1 (kynurenine production, Ehrlich reagent, absorbance 490 nm)
Type: cell-based
Settings: 20 hours incubation with compound, 500 nM reference standard = 100% inhibition, read-out: IDO1 HEK Human IC50
In short: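 HEK293 clones stably expressing human IDO1 (10,000 cells/well, phenol red-free RPMI, 10% FBS) were treated with compound for 20 hours at 37° C. After 0.2% TCA and 30 min at 50° C., kynurenine was read with Ehrlich reagent at 490 nm. IC50 was normalised to DMSO (0%) and 500 nM reference standard (100%).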

T1 sequence (P14902 whole entry): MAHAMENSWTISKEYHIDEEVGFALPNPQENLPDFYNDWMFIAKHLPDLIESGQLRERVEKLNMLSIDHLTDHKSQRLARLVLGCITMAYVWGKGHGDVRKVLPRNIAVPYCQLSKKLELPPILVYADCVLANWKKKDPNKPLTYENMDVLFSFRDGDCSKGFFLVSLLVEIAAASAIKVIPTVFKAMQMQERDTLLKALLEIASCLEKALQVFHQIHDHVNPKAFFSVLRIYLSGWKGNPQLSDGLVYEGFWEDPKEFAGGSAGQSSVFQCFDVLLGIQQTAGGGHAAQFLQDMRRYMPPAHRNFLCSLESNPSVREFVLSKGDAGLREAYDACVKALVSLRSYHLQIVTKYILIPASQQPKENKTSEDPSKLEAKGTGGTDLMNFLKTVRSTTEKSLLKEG

Compared with `CCCN(Cc1ccccc1)c1cc(Nc2nc3ccc(F)cc3s2)cc(-c2ccccc2-c2nnn[nH]2)n1` [Example 62, 6-(2-(1H-tetrazol-5-yl)phenyl)-N2-benzyl-N4-(6-fluorobenzo[d]thiazol-2-yl)-N2-propylpyridine-2,4-diamine], `CCCN(Cc1ccccc1)c1cc(Nc2ccc3nc(C)sc3c2)cc(-c2ccccc2-c2nnn[nH]2)n1` [Example 58, 6-(2-(1H-tetrazol-5-yl)phenyl)-N2-benzyl-N4-(2-methylbenzo [d]thiazol-6-yl)-N2-propylpyridine-2,4-diamine] is 14-fold lower in IC50: 56.8 nM for the first, 4.2 nM for the second. The second is the more potent here.

Compared with `CCCN(Cc1ccccc1)c1cc(NC(=O)Nc2ccc(C)cc2)cc(-c2ccccc2C(=O)NS(=O)(=O)C2CC2)n1` [Example 20, 2-(6-(benzyl(propyl)amino)-4-(3-(p-tolyl)ureido)pyridin-2-yl)-N-(cyclopropylsulfonyl)benzamide], `CCCN(Cc1ccccc1)c1cc(NC(=O)Nc2ccc(C)cc2)cc(-c2ccccc2C(N)=O)n1` [Example 38, 2-(6-(benzyl (propyl)amino)-4-(3-(p-tolyl)ureido)pyridin-2-yl) benzamide] is 2-fold lower in IC50: 594 nM for the first, 302 nM for the second.

Going from `CC(C)CN(Cc1ccccc1)c1cc(Nc2ccc3ccccc3n2)cc(-c2ccccc2-c2nnn[nH]2)n1` [Example 154, 6-(2-(1H-tetrazol-5-yl)phenyl)-N2-benzyl-N2-isobutyl-N4-(quinolin-2-yl)pyridine-2,4-diamine] to `CC(C)CN(Cc1ccccc1)c1cc(Nc2ccc(C#N)cn2)cc(-c2ccccc2-c2nnn[nH]2)n1` [Example 150, 6-((2-(2-(1H-tetrazol-5-yl)phenyl)-6-(benzyl(isobutyl)amino)pyridin-4-yl)amino)nicotinonitrile], the IC50 falls from 54 nM to 23.9 nM (2.3-fold). The second is the more potent here.

First: CCCN(Cc1ccccc1)c1cc(NC(=O)Cc2cc(OC)cc(OC)c2)cc(-c2ccccc2-c2nn[nH]n2)n1 [Example 208, N-(2-(2-(2H-tetrazol-5-yl)phenyl)-6-(benzyl(propyl)amino)pyridin-4-yl)-2-(3,5-dimethoxyphenyl)acetamide]
Second: CCCN(Cc1ccccc1)c1cc(NC(=O)Cc2cccs2)cc(-c2ccccc2-c2nn[nH]n2)n1 [Example 206, N-(2-(2-(2H-tetrazol-5-yl)phenyl)-6-(benzyl(propyl)amino)pyridin-4-yl)-2-(thiophen-2-yl)acetamide]
The IC50 of the first is 1.7-fold higher: 544 nM for the first, 323 nM for the second. The second is the more potent here.

First: CCCN(Cc1ccccc1)c1cc(NC(=O)Nc2ccc(C)cc2)cc(-c2ccccc2-c2nc(=O)o[nH]2)n1 [Example 31, 1-(2-(benzyl (propyl)amino)-6-(2-(5-oxo-4,5-dihydro-1,2,4-oxadiazol-3-yl)phenyl)pyridin-4-yl)-3-(p-tolyl) urea]
Second: CCCN(Cc1ccccc1)c1cc(NC(=O)Cc2ccc(C)cc2)cc(-c2ccccc2S(N)(=O)=O)n1 [Example 33, N-(2-(benzyl (propyl)amino)-6-(2-sulfamoylphenyl)pyridin-4-yl)-2-(p-tolyl) acetamide]
The IC50 of the first is 37-fold lower: 13.9 nM for the first, 508 nM for the second.

Compared with `COc1cnc(Nc2cc(-c3ccccc3-c3nnn[nH]3)nc(N(Cc3ccccc3)CC(C)C)c2)nc1` [Example 172, 6-(2-(1H-tetrazol-5-yl)phenyl)-N2-benzyl-N2-isobutyl-N4-(5-methoxypyrimidin-2-yl)pyridine-2,4-diamine], `Cc1cncc(Nc2cc(-c3ccccc3-c3nnn[nH]3)nc(N(Cc3ccccc3)CC(C)C)c2)n1` [Example 136, 6-(2-(1H-tetrazol-5-yl)phenyl)-N2-benzyl-N2-isobutyl-N4-(6-methylpyrazin-2-yl)pyridine-2,4-diamine] is 5.4-fold higher in IC50: 14.4 nM for the first, 78 nM for the second. The first is the more potent here.

Compared with `CC(C)CN(Cc1ccccc1)c1cc(Nc2nc(C(F)(F)F)ccc2F)cc(-c2ccccc2-c2nnn[nH]2)n1` [Example 151, 6-(2-(1H-tetrazol-5-yl)phenyl)-N2-benzyl-N4-(3-fluoro-6-(trifluoromethyl)pyridin-2-yl)-N2-isobutylpyridine-2,4-diamine], `CC(C)CN(Cc1ccccc1)c1cc(Nc2ccc(F)cc2F)cc(-c2ccccc2-c2nnn[nH]2)n1` [Example 56, 6-(2-(1H-tetrazol-5-yl)phenyl)-N2-benzyl-N4-(2,4-difluorophenyl)-N2-isobutylpyridine-2,4-diamine] is 32-fold lower in IC50: 279 nM for the first, 8.6 nM for the second.

First: CCCN(Cc1ccccc1)c1cc(NC(=O)Cc2cn(C)c3ccccc23)cc(-c2ccccc2-c2nn[nH]n2)n1 [Example 221, N-(2-(2-(2H-tetrazol-5-yl)phenyl)-6-(benzyl(propyl)amino)pyridin-4-yl)-2-(1-methyl-1H-indol-3-yl)acetamide]
Second: CCCN(Cc1ccccc1)c1cc(NC(=O)Cn2ccnc2)cc(-c2ccccc2-c2nn[nH]n2)n1 [Example 222, N-(2-(2-(2H-tetrazol-5-yl)phenyl)-6-(benzyl(propyl)amino)pyridin-4-yl)-2-(1H-imidazol-1-yl)acetamide]
The IC50 of the first is 14-fold lower: 249 nM for the first, 3430 nM for the second.

First: Cc1cccnc1Nc1cc(-c2ccccc2-c2nnn[nH]2)nc(N(Cc2ccccc2)CC(C)C)c1 [Example 168, 6-(2-(1H-tetrazol-5-yl)phenyl)-N2-benzyl-N2-isobutyl-N4-(3-methylpyridin-2-yl)pyridine-2,4-diamine]
Second: CC(C)CN(Cc1ccccc1)c1cc(Nc2ccncc2F)cc(-c2ccccc2-c2nnn[nH]2)n1 [Example 139, 6-(2-(1H-tetrazol-5-yl)phenyl)-N2-benzyl-N4-(3-fluoropyridin-4-yl)-N2-isobutylpyridine-2,4-diamine]
The IC50 of the first is 17-fold higher: 393 nM for the first, 23.4 nM for the second.

First: CC(C)CN(Cc1ccccc1)c1cc(NC(=O)Cc2ccc(F)cc2F)cc(-c2ccccc2-c2nnn[nH]2)n1 [Example 229, N-(2-(2-(1H-tetrazol-5-yl)phenyl)-6-(benzyl(isobutyl)amino)pyridin-4-yl)-2-(2,4-difluorophenyl)acetamide]
Second: Cc1cc(CC(=O)Nc2cc(-c3ccccc3-c3nnn[nH]3)nc(N(Cc3ccccc3)CC(C)C)c2)on1 [Example 231, N-(2-(2-(1H-tetrazol-5-yl)phenyl)-6-(benzyl(isobutyl)amino)pyridin-4-yl)-2-(3-methylisoxazol-5-yl)acetamide]
The IC50 of the first is 3.6-fold lower: 188 nM for the first, 675 nM for the second. The first is the more potent here.

First: CCCN(c1cc(NC(=O)Nc2ccc(C)cc2)cc(-c2ccccc2-c2nnn[nH]2)n1)C1CCOCC1 [Example 109, 1-(2-(2-(1H-tetrazol-5-yl)phenyl)-6-(propyl(tetrahydro-2H-pyran-4-yl)amino)pyridin-4-yl)-3-(p-tolyl)urea]
Second: CCCN(CC1CC1)c1cc(NC(=O)Cc2ccc(F)cc2)cc(-c2ccccc2-c2nnn[nH]2)n1 [Example 73, N-(2-(2-(1H-tetrazol-5-yl)phenyl)-6-((cyclopropylmethyl)(propyl)amino)pyridin-4-yl)-2-(4-fluorophenyl)acetamide, TFA]
The IC50 of the first is 12-fold higher: 4120 nM for the first, 334 nM for the second. The second is the more potent here.

`CCCN(Cc1ccc(F)cc1)c1cc(NC(=O)Cc2ccc(C)cc2F)cc(-c2ccccc2-c2nnn[nH]2)n1` [Example 75, N-(2-(2-(1H-tetrazol-5-yl)phenyl)-6-((4-fluorobenzyl)(propyl)amino)pyridin-4-yl)-2-(2-fluoro-4-methylphenyl)acetamide, TFA] and `Cc1ccc(CC(=O)Nc2cc(-c3ccccc3-c3nnn[nH]3)nc(N(Cc3ccc(F)cc3)CC(C)C)c2)cc1` [Example 90, N-(2-(2-(1H-tetrazol-5-yl)phenyl)-6-((4-fluorobenzyl)(isobutyl)amino)pyridin-4-yl)-2-(p-tolyl)acetamide, TFA] are within 1.5-fold of each other in IC50: 27.9 nM for the first, 40.9 nM for the second.

Going from `CCCCNC(=O)Nc1cc(-c2ccccc2-c2nnn[nH]2)nc(N(CCC)Cc2ccccc2)c1` [Example 264, 1-(2-(2-(1H-tetrazol-5-yl)phenyl)-6-(benzyl(propyl)amino)pyridin-4-yl)-3-butylurea] to `CCN(Cc1ccccc1)c1cc(NC(=O)Cc2cc(C)no2)cc(-c2ccccc2-c2nnn[nH]2)n1` [Example 283], the IC50 falls from 1800 nM to 1150 nM (1.6-fold).

Going from `CC(C)CN(Cc1ccccc1)c1cc(Nc2ncc(C(N)=O)cc2F)cc(-c2ccccc2-c2nnn[nH]2)n1` [Example 159, 6-((2-(2-(1H-tetrazol-5-yl)phenyl)-6-(benzyl(isobutyl)amino)pyridin-4-yl)amino)-5-fluoronicotinamide] to `CC(C)CN(Cc1ccccc1)c1cc(Nc2ccc(C(N)=O)cc2)cc(-c2ccccc2-c2nnn[nH]2)n1` [Example 144, 4-((2-(2-(1H-tetrazol-5-yl)phenyl)-6-(benzyl(isobutyl)amino)pyridin-4-yl)amino)benzamide], the IC50 rises from 275 nM to 665 nM (2.4-fold).

Compared with `CC(C)CN(Cc1ccccc1)c1cc(NC(=O)Cc2ccc(C(C)C)cc2)cc(-c2ccccc2-c2nnn[nH]2)n1` [Example 230, N-(2-(2-(1H-tetrazol-5-yl)phenyl)-6-(benzyl(isobutyl)amino)pyridin-4-yl)-2-(4-isopropylphenyl)acetamide], `CC(C)CN(Cc1ccccc1)c1cc(NC(=O)Cc2ccc(OC(F)(F)F)cc2)cc(-c2ccccc2-c2nnn[nH]2)n1` [Example 235, N-(2-(2-(1H-tetrazol-5-yl)phenyl)-6-(benzyl(isobutyl)amino)pyridin-4-yl)-2-(4-(trifluoromethoxy)phenyl)acetamide] is 2.9-fold higher in IC50: 139 nM for the first, 400 nM for the second.

`Cc1ccc(CC(=O)Nc2cc(-c3ccccc3-c3nnn[nH]3)nc(N3CCCC(C)(C)C3)c2)cc1` [Example 135, N-(2-(2-(1H-tetrazol-5-yl)phenyl)-6-(3,3-dimethylpiperidin-1-yl)pyridin-4-yl)-2-(p-tolyl)acetamide] and `CCC(CC(=O)O)c1cc(Nc2ccc3nc(C)sc3c2)cc(N(Cc2ccccc2)C(C)C)n1` (stereo not drawn) [Example 242, 3-(6-(benzyl(isopropyl)amino)-4-((2-methylbenzo[d]thiazol-6-yl)amino)pyridin-2-yl)pentanoic acid] are within 1.5-fold of each other in IC50: 1240 nM for the first, 971 nM for the second.

`CCC(CC(=O)O)c1cc(Nc2ccc3nc(C)sc3c2)cc(N(Cc2ccc(F)cc2)C(C)C)n1` (single isomer, unassigned) [Example 247, 3-(6-((4-fluorobenzyl)(isopropyl)amino)-4-((2-methylbenzo [d]thiazol-6-yl)amino)pyridin-2-yl)pentanoic acid] was tested, and the IC50 was 11.1 nM.
